This passage reports IC50 results from US11174251B2, “Compositions and methods for inhibition of the JAK pathway” (Rigel Pharmaceuticals, Inc., priority 2010, dated 2021).

Counter-ions that a name gives are not always drawn.

This assay deals with T1, JAK3 (Homo sapiens, UniProt P52333).
T1 construct: The Ramos B-cell line was acquired from ATCC (ATCC Catalog No. CRL-1596); host or cells: Ramos B-cell line (human)
T1 sequence (P52333 1-1124): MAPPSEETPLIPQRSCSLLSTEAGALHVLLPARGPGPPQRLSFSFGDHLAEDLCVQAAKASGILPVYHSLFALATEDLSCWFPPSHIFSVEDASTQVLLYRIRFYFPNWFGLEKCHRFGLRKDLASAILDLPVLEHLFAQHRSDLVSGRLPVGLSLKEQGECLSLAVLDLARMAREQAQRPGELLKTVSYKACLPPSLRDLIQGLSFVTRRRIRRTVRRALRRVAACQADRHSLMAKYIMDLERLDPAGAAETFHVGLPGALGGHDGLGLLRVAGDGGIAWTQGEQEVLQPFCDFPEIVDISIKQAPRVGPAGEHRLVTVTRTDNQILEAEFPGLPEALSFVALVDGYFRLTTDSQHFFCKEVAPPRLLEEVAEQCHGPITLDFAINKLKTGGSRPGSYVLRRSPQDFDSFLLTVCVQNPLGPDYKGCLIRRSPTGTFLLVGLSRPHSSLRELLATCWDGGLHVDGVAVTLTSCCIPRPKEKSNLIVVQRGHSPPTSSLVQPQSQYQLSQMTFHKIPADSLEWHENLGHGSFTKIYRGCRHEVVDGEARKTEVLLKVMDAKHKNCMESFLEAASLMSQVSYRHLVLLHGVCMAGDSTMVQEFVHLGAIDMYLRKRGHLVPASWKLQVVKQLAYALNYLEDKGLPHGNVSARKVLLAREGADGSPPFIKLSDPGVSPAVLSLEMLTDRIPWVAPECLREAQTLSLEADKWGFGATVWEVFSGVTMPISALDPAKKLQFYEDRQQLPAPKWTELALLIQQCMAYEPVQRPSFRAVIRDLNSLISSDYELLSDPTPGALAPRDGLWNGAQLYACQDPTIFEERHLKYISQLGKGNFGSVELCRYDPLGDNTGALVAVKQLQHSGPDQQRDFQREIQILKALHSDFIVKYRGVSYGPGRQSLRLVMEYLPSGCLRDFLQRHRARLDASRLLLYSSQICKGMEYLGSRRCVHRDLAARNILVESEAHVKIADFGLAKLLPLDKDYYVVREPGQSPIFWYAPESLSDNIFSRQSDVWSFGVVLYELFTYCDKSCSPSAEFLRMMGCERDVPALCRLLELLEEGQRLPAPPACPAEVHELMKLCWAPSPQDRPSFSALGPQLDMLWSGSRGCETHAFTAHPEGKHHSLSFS
Kind of assay: Assay for CD23 expression on Ramos B-cells stimulated by IL-4 (Table IV: ability to inhibit JAK3 activity). It counts as cell-based. Conditions: tested under conditions described in Example 3 (so in the source). The source says: One means of assaying for such inhibition is detection of the effect of the 2,4-pyrimidinediamine compounds on the upregulation of downstream gene products. In the Ramos/IL4 assay, B-cells are stimulated with the cytokine Interleukin-4 (IL-4) leading to the activation of the JAK/Stat pathway through phosphorylation of the JAK family kinases, JAK1 and JAK3, which in turn phosphorylate and activate the transcription factor Stat-6. […] To study the effect of inhibitors (for example, the 2,4-substituted pyrimindinediamine compounds described herein) on the JAK1 and JAK3 kinases, human Ramos B cells are stimulated with human IL-4. 20 to 24 hours post stimulation, cells are stained for upregulation of CD23 and analyzed using FACS.
B-cells stimulated with cytokine Interleukin-4 (IL-4) activate the JAK/Stat pathway through phosphorylation of the JAK family kinases, JAK-1 and JAK-3, which in turn phosphorylate and activate the transcription factor Stat-6. […] To study the effect of inhibitors on the JAK family kinases, human Ramos B cells were stimulated with human IL-4 and the surface expression of CD23 was measured.
The day before the experiment, Ramos B-cells were diluted to 3.5×10^5 cells/mL to ensure that they were in a logarithmic growth phase.
Cells were spun down and suspended in RPMI with 5% serum. 5×10^4 cells were used per point in a 96-well tissue culture plate. Cells were pre-incubated with compound or DMSO (Sigma-Aldrich, St. Louis, Mo., Cat No. D2650) vehicle control for 1 hour in a 37° C. incubator. Cells were then stimulated with IL-4 (Peprotech Inc., Rocky Hill, N.J., Cat No. 200-04) for a final concentration of 50 units/mL for 20-24 hours. […] Detection was performed using a BD LSR I System Flow Cytometer, purchased from Becton Dickinson Biosciences of San Jose, Calif.
The compound designations in Table IV are consistent with those of Tables I-II above.
On to `Cc1cc(Nc2ncc(C(=O)O)c(Nc3ccc4oc(=O)[nH]c4c3)n2)cc(C)c1C` [Compound I-49, 4-(2-Oxo-2,3-dihydro-benzooxazol-5-ylamino)-2-(3,4,5-trimethyl-phenylamino)-pyrimidine-5-carboxylic acid trifluoroacetate salt], for which the concentration for half-maximal inhibition (IC50) was greater than 10000 nM.

Compound `COc1ccc(Nc2ncc(C)c(Nc3ccc4oc(=O)[nH]c4c3)n2)c(F)c1OC` [Compound I-50, 5-[2-(2-Fluoro-3,4-dimethoxy-phenylamino)-5-methyl-pyrimidin-4-ylamino]-3H-benzooxazol-2-one] showed an IC50 of less than 500 nM.

`COc1ccc(Nc2ncc(Cl)c(Nc3ccc4oc(=O)[nH]c4c3)n2)c(F)c1OC` [Compound I-51, 5-(5-chloro-2-(2-fluoro-3,4-dimethoxyphenylamino)pyrimidin-4-ylamino)benzo[d]oxazol-2(3H)-one trifluoroacetate salt] registered a concentration for half-maximal inhibition (IC50) of less than 500 nM.

`COc1cc(Nc2ncc(Cl)c(Nc3ccc4oc(=O)[nH]c4c3)n2)cc(C)c1C` [Compound I-52, 5-(5-chloro-2-(3-methoxy-4,5-dimethylphenylamino)pyrimidin-4-ylamino)benzo[d]oxazol-2(3H)-one] displayed a half-maximal inhibitory concentration (IC50) of less than 500 nM.

For the compound `COCCOc1c(C)ccc(Nc2ncc(C)c(Nc3ccc4oc(=O)[nH]c4c3)n2)c1F` [Compound I-53, 5-{2-[2-Fluoro-3-(2-methoxy-ethoxy)-4-methyl-phenylamino]-5-methyl-pyrimidin-4-ylamino}-3H-benzooxazol-2-one], the IC50 was less than 500 nM.

For the compound `COC(=O)c1cnc(Nc2ccc(C(N)=O)cc2)nc1Nc1ccc2oc(=O)[nH]c2c1` [Compound I-54, 2-(4-Carbamoyl-phenylamino)-4-(2-oxo-2,3-dihydro-benzooxazol-5-ylamino)-pyrimidine-5-carboxylic acid methyl ester trifluoroacetate salt], the IC50 was greater than 10000 nM.

In turn, `COC(=O)c1cnc(Nc2cc(OC)cc(C(F)(F)F)c2)nc1Nc1ccc2oc(=O)[nH]c2c1` [Compound I-55, 2-(3-Methoxy-5-trifluoromethyl-phenylamino)-4-(2-oxo-2,3-dihydro-benzooxazol-5-ylamino)-pyrimidine-5-carboxylic acid methyl ester trifluoroacetate salt] displayed an IC50 greater than 10000 nM.

Take `COC(=O)c1cnc(Nc2ccc(C)c(OC)c2)nc1Nc1ccc2oc(=O)[nH]c2c1` [Compound I-56, 2-(3-Methoxy-4-methyl-phenylamino)-4-(2-oxo-2,3-dihydro-benzooxazol-5-ylamino)-pyrimidine-5-carboxylic acid methyl ester trifluoroacetate salt]: the IC50 is greater than 10000 nM.

Compound `COC(=O)c1cnc(Nc2ccc(C)c(N(C)C)c2)nc1Nc1ccc2oc(=O)[nH]c2c1` [Compound I-57, 2-(3-Dimethylamino-4-methyl-phenylamino)-4-(2-oxo-2,3-dihydro-benzooxazol-5-ylamino)-pyrimidine-5-carboxylic acid methyl ester trifluoroacetate salt] registered a concentration for half-maximal inhibition (IC50) greater than 10000 nM.

In turn, `COC(=O)c1cnc(Nc2cc(C)c(F)c(OC)c2)nc1Nc1ccc2oc(=O)[nH]c2c1` [Compound I-58, 2-(4-Fluoro-3-methoxy-5-methyl-phenylamino)-4-(2-oxo-2,3-dihydro-benzooxazol-5-ylamino)-pyrimidine-5-carboxylic acid methyl ester trifluoroacetate salt] gave a half-inhibitory concentration (IC50) greater than 10000 nM.

As for `COC(=O)c1cnc(Nc2cc(C)c(C)c(OC)c2)nc1Nc1ccc2oc(=O)[nH]c2c1` [Compound I-59, 2-(3-Methoxy-4,5-dimethyl-phenylamino)-4-(2-oxo-2,3-dihydro-benzooxazol-5-ylamino)-pyrimidine-5-carboxylic acid methyl ester trifluoroacetate salt], the IC50 is greater than 10000 nM.

In the case of `NC(=O)c1ccc(Nc2ncc([N+](=O)[O-])c(Nc3ccc4oc(=O)[nH]c4c3)n2)cc1` [Compound I-60, 4-(5-nitro-4-(2-oxo-2,3-dihydrobenzo[d]oxazol-5-ylamino)pyrimidin-2-ylamino)benzamide trifluoroacetate salt], the IC50 was greater than 10000 nM.

For the compound `COCCOc1c(C)ccc(Nc2ncc(F)c(Nc3ccc4oc(=O)[nH]c4c3)n2)c1F` [Compound I-61, 5-(5-fluoro-2-(2-fluoro-3-(2-methoxyethoxy)-4-methylphenylamino)pyrimidin-4-ylamino)benzo[d]oxazol-2(3H)-one trifluoroacetate salt], the IC50 was less than 500 nM.

As for `COCCOc1c(C)ccc(Nc2nccc(Nc3ccc4oc(=O)[nH]c4c3)n2)c1F` [Compound I-62, 5-(2-(2-fluoro-3-(2-methoxyethoxy)-4-methylphenylamino)pyrimidin-4-ylamino)benzo[d]oxazol-2(3H)-one], the IC50 was in the range of 500 to 5000 nM.

The compound `Cc1cnc(Nc2cc(C)c(C#N)c(C)c2)nc1Nc1ccc2oc(=O)[nH]c2c1` [Compound I-64, 2,6-Dimethyl-4-[5-methyl-4-(2-oxo-2,3-dihydro-benzooxazol-5-ylamino)-pyrimidin-2-ylamino]-benzonitrile trifluoroacetate salt] came in with an IC50 of less than 500 nM.

`C=Cc1cccc(Nc2ncc(C)c(Nc3ccc4oc(=O)[nH]c4c3)n2)c1` [Compound I-65, 5-[5-Methyl-2-(3-vinyl-phenylamino)-pyrimidin-4-ylamino]-3H-benzooxazol-2-one trifluoroacetate salt] gave an IC50 of less than 500 nM.

In turn, `COCCOc1c(C)ccc(Nc2ncc(Cl)c(Nc3ccc4oc(=O)[nH]c4c3)n2)c1F` [Compound I-66, 5-(5-chloro-2-(2-fluoro-3-(2-methoxyethoxy)-4-methylphenylamino)pyrimidin-4-ylamino)benzo[d]oxazol-2(3H)-one trifluoroacetate salt] yielded an IC50 of less than 500 nM.

`COc1c(C)ccc(Nc2ncc(Cl)c(Nc3ccc4oc(=O)[nH]c4c3)n2)c1F` [Compound I-67, 5-(5-chloro-2-(2-fluoro-3-methoxy-4-methylphenylamino)pyrimidin-4-ylamino)benzo[d]oxazol-2(3H)-one]: the IC50 was less than 500 nM.

In turn, `CCc1ccc(Nc2ncc(C)c(Nc3ccc4oc(=O)[nH]c4c3)n2)c(F)c1OC` [Compound I-68, 5-[2-(4-Ethyl-2-fluoro-3-methoxy-phenylamino)-5-methyl-pyrimidin-4-ylamino]-3H-benzooxazol-2-one trifluoroacetate salt] gave a 50% inhibitory concentration (IC50) of less than 500 nM.

Turning to `Cc1cc(Nc2ncc(Cl)c(Nc3ccc4oc(=O)[nH]c4c3)n2)cc(C)c1C#N` [Compound I-69, 4-(5-chloro-4-(2-oxo-2,3-dihydrobenzo[d]oxazol-5-ylamino)pyrimidin-2-ylamino)-2,6-dimethylbenzonitrile] trifluoroacetate salt], the concentration for half-maximal inhibition (IC50) was less than 500 nM.

`Cc1cc(Nc2ncc(F)c(Nc3ccc4oc(=O)[nH]c4c3)n2)cc(C)c1C#N` [Compound I-70, 4-(5-fluoro-4-(2-oxo-2,3-dihydrobenzo[d]oxazol-5-ylamino)pyrimidin-2-ylamino)-2,6-dimethylbenzonitrile] yielded an IC50 of less than 500 nM.

Consider `CCc1ccc(Nc2ncc(Cl)c(Nc3ccc4oc(=O)[nH]c4c3)n2)c(F)c1OC` [Compound I-71, 5-(5-chloro-2-(4-ethyl-2-fluoro-3-methoxyphenylamino)pyrimidin-4-ylamino)benzo[d]oxazol-2(3H)-one trifluoroacetate salt], for which the IC50 was less than 500 nM.
